Source: PubChem BioAssay (NCI)
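Interpolation was linear, between the two tested concentrations surrounding the appropriate level; five concentrations were tested over 48 hours in 96-well plates. The concentration for 50% growth inhibition is given as GI50. TGI: concentration producing complete growth inhibition.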 Where a SMILES comes first, the peptide text is derived from it. [ ]: non-standard residue; d: D form. The star is where a group is joined. dTle = CC(C)(C)[C@@H](N)C(=O)O; 4Abz = Nc1ccc(C(=O)O)cc1; NHOH = ON*

Key:
Assay in all cases: growth of human tumour cells (NCI), 48 h
[1] = test system: SF-268 CNS
[2] = test system: SF-539 CNS
[3] = test system: MCF7 breast
[4] = test system: HOP-92 NSCLC
[5] = test system: TK-10 renal
[6] = test system: U251 CNS
[7] = test system: RPMI-8226 leukemia
[8] = test system: UACC-257 melanoma
[9] = test system: BT-549 breast
[10] = test system: SK-MEL-28 melanoma

SMILES	GI50 [1]	TGI [1]	GI50 [2]	TGI [2]	GI50 [3]	TGI [3]	GI50 [4]	TGI [4]	GI50 [5]	TGI [5]	GI50 [6]	TGI [6]	GI50 [7]	TGI [7]	GI50 [8]	TGI [8]	GI50 [9]	TGI [9]	GI50 [10]	TGI [10]
COc1ccc2c(c1)C(=O)/C(=C/c1ccc([N+](=O)[O-])o1)O2	1.85 µM	4.02 µM	1.76 µM	3.91 µM	0.716 µM	2.84 µM	0.793 µM	2.79 µM	1.05 µM	2.59 µM	1.64 µM	3.43 µM	2.01 µM	6.2 µM	1.61 µM	3.45 µM	1.53 µM	3.44 µM	1.69 µM	3.22 µM
C/C(=N\NC(=S)SCc1ccccc1)c1ccccn1		11.4 µM		2.49 µM		< 0.01 µM		2.14 µM		13.5 µM		13.3 µM		1.97 µM		1.42 µM		6.07 µM		
O=C(CCn1[nH]c(=O)c(Cl)c(Cl)c1=O)NNC(=O)C[n+]1ccccc1		> 100 µM		> 100 µM						> 100 µM				> 100 µM						> 100 µM
CC(C)(C)c1ccc(OCCOCCOc2ccc(C(C)(C)C)cc2S(=O)(=O)Nc2ccc([N+](=O)[O-])cc2)c(S(=O)(=O)Nc2ccc([N+](=O)[O-])cc2)c1		> 100 µM		> 100 µM				72.3 µM		> 100 µM		> 100 µM				> 100 µM				> 100 µM
CCOC(=O)C1=C(C)N(Cc2ccc(Cl)cc2Cl)C2(O)C=CC(=O)C3=C(O)c4ccccc4C(=O)C312 (stereo not given)	6.72 µM	37.5 µM			2.65 µM	40.1 µM	1.23 µM	5.48 µM	3.78 µM	10.8 µM	3.53 µM	15.8 µM	3.29 µM	13 µM	10.9 µM	61.2 µM	21.6 µM	> 100 µM	10.6 µM	40.1 µM
C[C@@H](NC(=O)[C@H](NC(=O)[C@@H]1CCCN1C(=O)CNC(=O)c1ccc(N)cc1)C(C)(C)C)C(=O)NO (H-[4Abz]GP[dTle][dA]-{NHOH})	> 100 µM	> 100 µM	> 100 µM	> 100 µM	> 100 µM	> 100 µM	5.76 µM	> 100 µM	> 100 µM	> 100 µM	> 100 µM	> 100 µM			> 100 µM	> 100 µM	> 100 µM	> 100 µM	> 100 µM	> 100 µM
O=C(CC(=O)c1cccc2ccccc12)C(=O)NC1C2CC3CC(C2)CC1C3 (stereo not given)		> 100 µM		> 100 µM				> 100 µM		> 100 µM		> 100 µM		> 100 µM		> 100 µM				
CCc1cc(CCC(=O)Nc2ccccc2[N+](=O)[O-])[nH]c(=S)n1		> 100 µM		> 100 µM				> 100 µM		> 100 µM		> 100 µM				> 100 µM				> 100 µM
COc1ccc2c3c(c(C(=O)c4ccccc4)oc13)CCC2				> 100 µM						> 100 µM		> 100 µM		> 100 µM		> 100 µM				> 100 µM
Cc1cccc(C(C)(C)C)c1NC(=O)CCc1nc(=S)[nH][nH]1		> 100 µM		> 100 µM				> 100 µM		> 100 µM		> 100 µM		> 100 µM		> 100 µM				> 100 µM
